Test results: ChEMBL document CHEMBL3885881, “DrugMatrix”
“And” between values parts separate entries of the source, which are not always exact repeats. Equal values may be shown once.

Species on record: Rattus norvegicus
Assay: DrugMatrix - Regimen: Daily Repeat
Type: toxicity, organism-based, Sprague-Dawley
Design: regimen Daily Repeat, gender Male, age 6-8 weeks
Details: in vivo, sc, route mini-PUMP - SUBCUTANEOUS, vehicle 100 % SALINE; for ABSOLUTE MONOCYTE / ABSOLUTE SEGMENTED NEUTROPHIL / BASOPHIL / EOSINOPHIL / ERYTHROCYTE COUNT / HEMATOCRIT / HEMOGLOBIN / LEUKOCYTE COUNT / MEAN CORPUSCULAR HEMOGLOBIN / MEAN CORPUSCULAR HEMOGLOBIN CONCENTRATION / MEAN CORPUSCULAR VOLUME / MONOCYTE / NEUTROPHIL / NUCLEATED RED BLOOD CELLS / PLATELET COUNT / ABSOLUTE BASOPHIL / ABSOLUTE EOSINOPHIL / ABSOLUTE LYMPHOCYTE: tissue Blood; for ALBUMIN / ALKALINE PHOSPHATASE / ASPARTATE AMINOTRANSFERASE / BLOOD UREA NITROGEN / CARBON DIOXIDE / CHOLESTEROL / CREATINE PHOSPHOKINASE / CREATININE / GLUCOSE / LACTATE DEHYDROGENASE / PHOSPHORUS / POTASSIUM / SODIUM / TOTAL BILIRUBIN / URIC ACID: tissue Plasma
[1] = 0 mg/kg, 72 h, dose level Control, time 3 day
[2] = 0 mg/kg, 120 h, dose level Control, time 5 day
[3] = 0 mg/kg, […], dose level Control, time 14 day
[4] = 0.5 mg/kg, 72 h, dose level High, time 3 day
[5] = 0.5 mg/kg, 120 h, dose level High, time 5 day
[6] = 0.5 mg/kg, […], dose level High, time 14 day

## CC[C@H](C)[C@H](NC(=O)[C@H](Cc1ccc(O)cc1)NC(=O)[C@@H](NC(=O)[C@H](CCCNC(=N)N)NC(=O)[C@@H](N)CC(=O)O)C(C)C)C(=O)N[C@@H](Cc1cnc[nH]1)C(=O)N1CCC[C@H]1C(=O)N[C@@H](Cc1ccccc1)C(=O)O [ANGIOTENSIN II]
[1]
  ABSOLUTE MONOCYTE: 230 cells/µL and 354 CELLS/uL
  ABSOLUTE SEGMENTED NEUTROPHIL: 1658.33 CELLS/uL
  BASOPHIL: 0.3% and 0%
  EOSINOPHIL: 0.43% and 0.5%
  ERYTHROCYTE COUNT: 6.91 x10E6/uL and 6.27 x10E6/uL
  HEMATOCRIT: 45.43% and 36.95%
  HEMOGLOBIN: 14.37 G/DL and 13.4 G/DL
  LEUKOCYTE COUNT: 12.09 x10E3/uL and 16.38 x10E3/uL
  MEAN CORPUSCULAR HEMOGLOBIN: 20.8 pg and 21.42 pg
  MEAN CORPUSCULAR HEMOGLOBIN CONCENTRATION: 31.67 G/DL and 36.27 G/DL
  MEAN CORPUSCULAR VOLUME: 65.83 fL and 59.03 fL
  MONOCYTE: 1.83% and 2%
  NEUTROPHIL: 15.07% and 10.33%
  NUCLEATED RED BLOOD CELLS: 0 /100WBC
  PLATELET COUNT: 1299.67 x10E3/uL and 904.67 x10E3/uL
  ALBUMIN: 3.83 G/DL and 3.82 G/DL
  ALKALINE PHOSPHATASE: 333.67 u/L and 282.33 u/L
  ASPARTATE AMINOTRANSFERASE: 68 u/L and 86.83 u/L
  BLOOD UREA NITROGEN: 19.33 mg/dL and 20.17 mg/dL
  CARBON DIOXIDE: 43 mmol/L and 34.67 mmol/L
  CHOLESTEROL: 84.33 mg/dL and 71.5 mg/dL
  CREATINE PHOSPHOKINASE: 334.33 u/L
  CREATININE: 0.53 mg/dL and 0.2 mg/dL
  GLUCOSE: 156.67 mg/dL and 136.83 mg/dL
  LACTATE DEHYDROGENASE: 159 u/L
  PHOSPHORUS: 9.8 mg/dL and 10.12 mg/dL
  POTASSIUM: 5.93 MEQ/L and 5.92 MEQ/L
  SODIUM: 146.33 MEQ/L and 147.8 MEQ/L
  TOTAL BILIRUBIN: 0.37 mg/dL and 0.2 mg/dL
  URIC ACID: 0.73 mg/dL and 1.4 mg/dL
[2]
  ABSOLUTE SEGMENTED NEUTROPHIL: 3216.67 CELLS/uL
  BASOPHIL: 0.2% and 0%
  EOSINOPHIL: 0.33% and 0%
  ERYTHROCYTE COUNT: 6.81 x10E6/uL and 6.11 x10E6/uL
  HEMATOCRIT: 44.33% and 36.22%
  HEMOGLOBIN: 13.77 G/DL and 13.18 G/DL
  LEUKOCYTE COUNT: 11.2 x10E3/uL and 17.8 x10E3/uL
  MEAN CORPUSCULAR HEMOGLOBIN: 20.23 pg and 21.62 pg
  MEAN CORPUSCULAR HEMOGLOBIN CONCENTRATION: 31.03 G/DL and 36.42 G/DL
  MEAN CORPUSCULAR VOLUME: 65.1 fL and 59.37 fL
  MONOCYTE: 2.1% and 1.83%
  NEUTROPHIL: 16.43% and 17.67%
  NUCLEATED RED BLOOD CELLS: 0 /100WBC
  PLATELET COUNT: 1573.33 x10E3/uL and 1311 x10E3/uL
  ALBUMIN: 3.87 G/DL and 3.83 G/DL
  ALKALINE PHOSPHATASE: 303.67 u/L and 260.33 u/L
  ASPARTATE AMINOTRANSFERASE: 72.67 u/L and 76.17 u/L
  BLOOD UREA NITROGEN: 17.33 mg/dL and 14.67 mg/dL
  CARBON DIOXIDE: 41.33 mmol/L and 31.33 mmol/L
  CHOLESTEROL: 74.33 mg/dL and 75 mg/dL
  CREATINE PHOSPHOKINASE: 286.67 u/L
  CREATININE: 0.47 mg/dL and 0.16 mg/dL
  GLUCOSE: 152.33 mg/dL and 152.67 mg/dL
  LACTATE DEHYDROGENASE: 147.33 u/L
  PHOSPHORUS: 10 mg/dL and 10.97 mg/dL
  POTASSIUM: 6.4 MEQ/L and 6 MEQ/L
  SODIUM: 146 MEQ/L and 145.52 MEQ/L
  TOTAL BILIRUBIN: 0.43 mg/dL and 0.17 mg/dL
  URIC ACID: 0.83 mg/dL and 1.27 mg/dL
[3]
  ABSOLUTE SEGMENTED NEUTROPHIL: 2414 CELLS/uL
  NUCLEATED RED BLOOD CELLS: 0.17 /100WBC
  CREATINE PHOSPHOKINASE: 262 u/L
[4]
  ABSOLUTE BASOPHIL: 56.7 cells/µL
  ABSOLUTE EOSINOPHIL: 70 cells/µL
  ABSOLUTE LYMPHOCYTE: 10900 cells/µL
  ABSOLUTE MONOCYTE: 510 cells/µL
  BASOPHIL: 0.4%
  EOSINOPHIL: 0.5%
  ERYTHROCYTE COUNT: 6.47 x10E6/uL
  HEMATOCRIT: 44.43%
  HEMOGLOBIN: 13.53 G/DL
  LEUKOCYTE COUNT: 14.39 x10E3/uL
  MEAN CORPUSCULAR HEMOGLOBIN: 20.97 pg
  MEAN CORPUSCULAR HEMOGLOBIN CONCENTRATION: 30.53 G/DL
  MEAN CORPUSCULAR VOLUME: 68.7 fL
  MONOCYTE: 3.57%
  NEUTROPHIL: 18.63%
  PLATELET COUNT: 1360 x10E3/uL
  ALBUMIN: 3.77 G/DL
  ALKALINE PHOSPHATASE: 339 u/L
  ASPARTATE AMINOTRANSFERASE: 71.67 u/L
  BLOOD UREA NITROGEN: 19 mg/dL
  CARBON DIOXIDE: 41.33 mmol/L
  CHOLESTEROL: 91.67 mg/dL
  CREATINE PHOSPHOKINASE: 392.67 u/L
  CREATININE: 0.5 mg/dL
  GLUCOSE: 169.67 mg/dL
  PHOSPHORUS: 10.23 mg/dL
  POTASSIUM: 6.3 MEQ/L
  SODIUM: 150.67 MEQ/L
  TOTAL BILIRUBIN: 0.27 mg/dL
  URIC ACID: 0.93 mg/dL
[5]
  ABSOLUTE BASOPHIL: 43.3 cells/µL
  ABSOLUTE EOSINOPHIL: 36.7 cells/µL
  ABSOLUTE LYMPHOCYTE: 9260 cells/µL
  ABSOLUTE MONOCYTE: 340 cells/µL
  BASOPHIL: 0.33%
  EOSINOPHIL: 0.3%
  ERYTHROCYTE COUNT: 6.6 x10E6/uL
  HEMATOCRIT: 45.03%
  HEMOGLOBIN: 13.57 G/DL
  LEUKOCYTE COUNT: 12.59 x10E3/uL
  MEAN CORPUSCULAR HEMOGLOBIN: 20.53 pg
  MEAN CORPUSCULAR HEMOGLOBIN CONCENTRATION: 30.1 G/DL
  MEAN CORPUSCULAR VOLUME: 68.23 fL
  MONOCYTE: 2.7%
  NEUTROPHIL: 22.57%
  PLATELET COUNT: 1662.33 x10E3/uL
  ALBUMIN: 3.8 G/DL
  ALKALINE PHOSPHATASE: 329 u/L
  ASPARTATE AMINOTRANSFERASE: 76.33 u/L
  BLOOD UREA NITROGEN: 17.67 mg/dL
  CARBON DIOXIDE: 41 mmol/L
  CHOLESTEROL: 86.33 mg/dL
  CREATINE PHOSPHOKINASE: 239.67 u/L
  CREATININE: 0.5 mg/dL
  GLUCOSE: 171.33 mg/dL
  PHOSPHORUS: 9.77 mg/dL
  POTASSIUM: 5.87 MEQ/L
  SODIUM: 152 MEQ/L
  TOTAL BILIRUBIN: 0.3 mg/dL
  URIC ACID: 1.33 mg/dL
[6]
  ABSOLUTE BASOPHIL: 40 cells/µL
  ABSOLUTE EOSINOPHIL: 62 cells/µL
